Test results from patent publication US11000033B2, “Ketone or oxime compound, and herbicide” (NISSAN CHEMICAL CORPORATION, priority 2014, dated 2021).

Assays:
Format in all cases: in vivo
transplanted rice plant = assay: Test Example 1: effect on crop, application before weed generation in submerged conditions (symbol a); settings: application herbicide amount 320 g/ha
Outline: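 Rice at 2.5 leaf stage transplanted into submerged soil (4 cm depth) sown with three weed species; herbicide applied before weed emergence.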

Avena fatua = assay: Test Example 4: herbicidal effect by soil treatment (symbol I); settings: application herbicide amount 320 g/ha
Outline: (§1)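 Seeds were sown in sterilized diluvial soil, covered with about 1.5 cm of soil, and the soil surface was sprayed with a water-diluted emulsion of the compound at a predetermined rate. Plants grew in a greenhouse at 25° C. to 30° C.; effects were scored visually 3 weeks after application.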

Digitaria ciliaris = assay: Test Example 5: herbicidal effect by foliage application, plastic box (symbol F); settings: 320 g/ha, 3 weeks after application
Outline: (§2)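 Post-emergence spray; diluvial soil (sterilized), ~1.5 cm seed cover; greenhouse 25–30° C; 14-day-old plants; water-diluted emulsion at predetermined dose; visual score at 3 wk post-treatment.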

rice = assay: Test Example 4: effect on crop by soil treatment (symbol b); settings: application herbicide amount 320 g/ha
Outline: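 Diluvial soil (sterilized) in boxes; seeds placed spot-wise alongside weed species; ~1.5 cm covering soil. Greenhouse, 25–30° C.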

Leptochloa chinensis = assay: Test Example 3: herbicidal effect by foliage application, Wagner pot (symbol D); settings: application herbicide amount 320 g/ha
Outline: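 The compound, formulated as an emulsion and diluted with water to a predetermined rate, is applied uniformly to leaves of two-week-old seedlings growing in submerged alluvial soil at 25–30 °C. Rice is included. Each plant is assessed 3 weeks later using defined criteria.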

Alopecurus myosuroides = assay: Test Example 4: herbicidal effect by soil treatment (symbol J); settings: application herbicide amount 320 g/ha
Outline: as §1

Setaria viridis = assay: Test Example 5: herbicidal effect by foliage application, plastic box (symbol G); settings: 320 g/ha, 3 weeks after application
Outline: as §2

Monochoria vaginalis = assay: Test Example 2: herbicidal activity, application during weed generation in submerged conditions (symbol C); settings: Table 23; application herbicide amount 320 g/ha; grade 0-5 by criteria of Test Example 1
Outline: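 Treatment timing was the one- to two-leaf stage, with diluted emulsifiable compound dropped onto the paddy water (depth 4 cm) over alluvial soil. All three species grew from a mixed sowing in a 25° C. to 30° C. greenhouse. Injury was judged by eye 3 weeks on.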

beet = assay: Test Example 5: effect on crop by foliage application, plastic box (symbol f); settings: 320 g/ha, 3 weeks after application
Outline: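 Plants were raised from seed in a greenhouse (25° C. to 30° C.) after sowing in a plastic box of sterilized diluvial soil.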

Row | Structure (SMILES) | Effect grade on crop, a: transplanted rice plant (transplanted rice plant) | I: Avena fatua, herbicidal effect grade (Avena fatua) | F: Digitaria ciliaris, herbicidal effect grade (Digitaria ciliaris) | b: directly sowed rice plant, effect on crop grade (rice) | herbicidal effect on D (Leptochloa chinensis), grade 0-5 (Leptochloa chinensis) | J: Alopecurus myosuroides, herbicidal effect grade (Alopecurus myosuroides) | G: Setaria viridis, herbicidal effect grade (Setaria viridis) | Herbicidal effect grade, C: Monochoria vaginalis (Monochoria vaginalis) | f: beet, effect on crop grade (beet) | I (Avena fatua) herbicidal effect grade (Avena fatua) | b (directly sowed rice plant) effect on crop grade (rice) | J (Alopecurus myosuroides) herbicidal effect grade (Alopecurus myosuroides)
1 | CON=C(C)CC1CC(O)=C(c2c(C)cc(-n3cc(Cl)cn3)cc2C)C1=O (mixture of isomers) [6-004] | 5 (Herbicidal ratio of 90% or more (almost completely withered)) | 4 (Herbicidal ratio of 70% or higher and lower than 90%) | 5 (Herbicidal ratio of 90% or more (almost completely withered)) | 5 (Herbicidal ratio of 90% or more (almost completely withered)) | 5 (Herbicidal ratio of 90% or more (almost completely withered)) | 5 (Herbicidal ratio of 90% or more (almost completely withered)) | 5 (Herbicidal ratio of 90% or more (almost completely withered)) | – | – | – | – | –
2 | CC#Cc1cc(C)c(C2=C(O)CC(CC(C)=NOC)C2=O)c(C)c1 (mixture of isomers) [6-009] | 3 (Herbicidal ratio of 40% or higher and lower than 70%) | 4 (Herbicidal ratio of 70% or higher and lower than 90%) | 5 (Herbicidal ratio of 90% or more (almost completely withered)) | 5 (Herbicidal ratio of 90% or more (almost completely withered)) | 5 (Herbicidal ratio of 90% or more (almost completely withered)) | 5 (Herbicidal ratio of 90% or more (almost completely withered)) | 5 (Herbicidal ratio of 90% or more (almost completely withered)) | 0 (Herbicidal ratio of 5% or lower (almost no effect)) | 2 (Herbicidal ratio of 20% or higher and lower than 40%) | – | – | –
3 | CON=C(C)CC1CC(O)=C(c2c(C)cc(C#CC3CC3)cc2C)C1=O (mixture of isomers) [6-010] | 5 (Herbicidal ratio of 90% or more (almost completely withered)) | 3 (Herbicidal ratio of 40% or higher and lower than 70%) | 5 (Herbicidal ratio of 90% or more (almost completely withered)) | 5 (Herbicidal ratio of 90% or more (almost completely withered)) | 5 (Herbicidal ratio of 90% or more (almost completely withered)) | 5 (Herbicidal ratio of 90% or more (almost completely withered)) | 5 (Herbicidal ratio of 90% or more (almost completely withered)) | 0 (Herbicidal ratio of 5% or lower (almost no effect)) | 0 (Herbicidal ratio of 5% or lower (almost no effect)) | – | – | –
4 | C=Cc1cc(C)c(C2=C(O)CC(CC(C)=NOC)C2=O)c(C)c1 (mixture of isomers) [6-031] | 1 (Herbicidal ratio of 5% or higher and lower than 20%) | 0 (Herbicidal ratio of 5% or lower (almost no effect)) | 5 (Herbicidal ratio of 90% or more (almost completely withered)) | 0 (Herbicidal ratio of 5% or lower (almost no effect)) | 2 (Herbicidal ratio of 20% or higher and lower than 40%) | 0 (Herbicidal ratio of 5% or lower (almost no effect)) | 5 (Herbicidal ratio of 90% or more (almost completely withered)) | 0 (Herbicidal ratio of 5% or lower (almost no effect)) | 0 (Herbicidal ratio of 5% or lower (almost no effect)) | – | – | –
5 | C#CCOC1=C(c2c(C)cc(C)cc2C)C(=O)C(CC(C)=NOC)C1 (centres unmarked) [1-008] | 0 (Herbicidal ratio of 5% or lower (almost no effect)) | – | 5 (Herbicidal ratio of 90% or more (almost completely withered)) | – | 5 (Herbicidal ratio of 90% or more (almost completely withered)) | – | 5 (Herbicidal ratio of 90% or more (almost completely withered)) | 0 (Herbicidal ratio of 5% or lower (almost no effect)) | 0 (Herbicidal ratio of 5% or lower (almost no effect)) | 0 (Herbicidal ratio of 5% or lower (almost no effect)) | 3 (Herbicidal ratio of 40% or higher and lower than 70%) | 5 (Herbicidal ratio of 90% or more (almost completely withered))
6 | CON=C(C)CC1CC(OCCSC)=C(c2c(C)cc(C)cc2C)C1=O (centres unmarked) [1-011] | 0 (Herbicidal ratio of 5% or lower (almost no effect)) | – | 3 (Herbicidal ratio of 40% or higher and lower than 70%) | – | 5 (Herbicidal ratio of 90% or more (almost completely withered)) | – | 0 (Herbicidal ratio of 5% or lower (almost no effect)) | 0 (Herbicidal ratio of 5% or lower (almost no effect)) | 0 (Herbicidal ratio of 5% or lower (almost no effect)) | 0 (Herbicidal ratio of 5% or lower (almost no effect)) | 0 (Herbicidal ratio of 5% or lower (almost no effect)) | 0 (Herbicidal ratio of 5% or lower (almost no effect))
7 | CON=C(C)CC1CC(OCC#N)=C(c2c(C)cc(C)cc2C)C1=O (centres unmarked) [1-013] | 0 (Herbicidal ratio of 5% or lower (almost no effect)) | – | 0 (Herbicidal ratio of 5% or lower (almost no effect)) | – | 2 (Herbicidal ratio of 20% or higher and lower than 40%) | – | 0 (Herbicidal ratio of 5% or lower (almost no effect)) | 0 (Herbicidal ratio of 5% or lower (almost no effect)) | 0 (Herbicidal ratio of 5% or lower (almost no effect)) | 0 (Herbicidal ratio of 5% or lower (almost no effect)) | 0 (Herbicidal ratio of 5% or lower (almost no effect)) | 0 (Herbicidal ratio of 5% or lower (almost no effect))
8 | CON=C(C)CC1CC(O)=C(c2c(C)cc(C(=O)OC)cc2C)C1=O (centres unmarked) [6-023] | 4 (Herbicidal ratio of 70% or higher and lower than 90%) | 0 (Herbicidal ratio of 5% or lower (almost no effect)) | 5 (Herbicidal ratio of 90% or more (almost completely withered)) | 5 (Herbicidal ratio of 90% or more (almost completely withered)) | 5 (Herbicidal ratio of 90% or more (almost completely withered)) | 4 (Herbicidal ratio of 70% or higher and lower than 90%) | 5 (Herbicidal ratio of 90% or more (almost completely withered)) | – | – | – | – | –
